Measured values: article PMC3853684 (Scientific Reports, 2013)

Assays:
[1] = cited from earlier work
[2] = monkeys, starting level, cervical puncture; cited from earlier work
[3] = cited from earlier work; remark: listed apart in the source
[4] = Plasma OXT concentration after intranasal OXT; assay type: in vivo; conditions: male, human, inhaled or intranasal, 24 IU
[5] = intranasal 16 or 24 IU; cited from earlier work
[6] = intravenous injection, animal-based work; cited from earlier work
[7] = humans, cited from earlier work

In the case of CC[C@H](C)[C@@H]1NC(=O)[C@H](Cc2ccc(O)cc2)NC(=O)[C@@H](N)CSSC[C@@H](C(=O)N2CCC[C@H]2C(=O)N[C@@H](CC(C)C)C(=O)NCC(N)=O)NC(=O)[C@H](CC(N)=O)NC(=O)[C@H](CCC(N)=O)NC1=O [OXT, oxytocin], the “increase of half-life in CSF (compared to plasma)” value [1] is given as 30–40 fold, the “OXT CSF concentration before increase” value [2] is given as “around 20 pg/ml” and the “time of increases in OXT plasma concentrations” value ([3]; intranasal 24 IU) is given as 30 to 40 min. For the same compound, the “time of peak elevated OXT plasma concentrations” value ([3]; intranasal OXT 30 IU, three male volunteers) was 10 to 40 min, the Tmax [4] was 15 min and the level at 1.5 h ([4]; SD) was 0.0123 ± 0.006 ng/mL. The “duration of increase in OXT saliva concentrations” value [5] was “up to 7 h” and the “fraction of the peptide that crossed the blood-brain barrier (BBB)” value [6] was “approximately 0.01%”.
In the case of “arginine vasopressin [arginine vasopressin (AVP)]”, the “time to increase in CSF concentrations” value ([7]; intranasal 40 IU) is given as “up to 60 min”, the “increase in CSF concentrations (fold)” value ([7]; intranasal 80 IU) is given as “up to 4 fold” and the “time to significant increase in CSF concentrations” value ([7]; intranasal 80 IU) is given as 10 min.
